# Molecular target: T1, Acyl-CoA : cholesterol acyltransferase (ACAT) (Rattus norvegicus, UniProt Q7TQM4)
# T1 construct: from the mucosal microsome fraction of the small intestine of male, 6-week old Sprague-Dawley rats; from tissue; host or cells: mucosal microsome fraction of the small intestine of male 6-week old Sprague-Dawley rats, fasted for 20 hours
# T1 sequence (Q7TQM4 1-524): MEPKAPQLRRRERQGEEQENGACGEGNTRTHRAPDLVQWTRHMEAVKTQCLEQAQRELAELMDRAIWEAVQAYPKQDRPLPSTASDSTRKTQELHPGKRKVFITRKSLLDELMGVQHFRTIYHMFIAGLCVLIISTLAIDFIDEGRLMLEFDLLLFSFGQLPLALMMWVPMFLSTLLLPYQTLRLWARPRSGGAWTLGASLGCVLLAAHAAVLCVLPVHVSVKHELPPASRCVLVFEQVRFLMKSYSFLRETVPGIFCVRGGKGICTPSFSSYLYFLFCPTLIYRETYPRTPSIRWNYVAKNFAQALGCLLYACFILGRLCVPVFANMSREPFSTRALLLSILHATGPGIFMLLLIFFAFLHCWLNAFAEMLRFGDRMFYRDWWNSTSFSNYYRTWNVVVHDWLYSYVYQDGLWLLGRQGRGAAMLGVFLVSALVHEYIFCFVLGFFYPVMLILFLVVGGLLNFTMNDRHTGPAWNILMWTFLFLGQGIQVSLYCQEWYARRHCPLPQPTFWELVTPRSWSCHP
# Assay: Acyl-CoA : cholesterol acyltransferase (ACAT) inhibitory activity: production of labeled cholesterol ester from [1-^14 C] oleoyl-CoA and endogenous cholesterol
# Format: biochemical
# Conditions: 10^-6 M test compound; read-out: ACAT Inhibition Rate
# Method: 1. Acyl-CoA : cholesterol acyltransferase (ACAT) inhibitory activity.
# The enzyme ACAT was prepared by the method of Heider et al. described in Journal of Lipid Research, Vol. 24, page 1127 (1982), from the mucosal microsome fraction of the small intestine of male, 6-week old Sprague-Dawley rats which had been fasted for 20 hours.
# ACAT activity was calculated by the method of Helgerud et al. described in Journal of Lipid Research, Vol. 22, page 271 (1981), namely, by measuring the amount of the labeled cholesterol ester produced from [1-^14 C] oleoyl-CoA and endogenous cholesterol.
# Inhibition rates (%) of the production of the labeled cholesterol ester wherein 10^-6 M-10^-8 M of test compounds were added are shown as an index of ACAT inhibitory activity in Table 1.
row,Compound,inhibition at 1 µM
1,"Cc1cc(C)c2c(c1)c(-c1ccccc1Cl)c(NC(=O)Nc1ccc(F)cc1F)c[n+]2[O-] [Example 63, 4-(2-chlorophenyl)-3-[3-(2,4-difluorophenyl)ureido]-6,8-dimethylquinoline 1-oxide]",94.4%
2,"Cc1cc(C)c2ncc(NC(=O)Nc3cc(C)c(O)c(C)c3)c(-c3ccccc3Cl)c2c1 [Example 80, 4-(2-Chlorophenyl)-3-[3-(4-hydroxy-3,5-dimethylphenyl)ureido]-6,8-dimethylquinoline]",95.9%
3,"Cc1cc(C)c2ncc(NC(=O)Nc3ccc(Cl)cc3)c(-c3ccccc3Cl)c2c1 [Example 51, 4-(2-Chlorophenyl)-3-[3-(4-chlorophenyl)ureido]-6,8-dimethylquinoline]",97.2%
4,"COc1ccc(-c2c(NC(=O)Nc3ccc(F)cc3F)cnc3ccc(Cl)cc23)cc1 [Example 28, 6-Chloro-3-[3-(2,4-difluorophenyl)ureido]-4-(4-methoxyphenyl)quinoline]",92.7%
5,"CC(=O)Oc1c(C)cc(NC(=O)Nc2cnc3c(C)cc(C)cc3c2-c2ccccc2Cl)cc1C [Example 77, 3-[3-(4-Acetoxy-3,5-dimethylphenyl)ureido]-4-(2-chlorophenyl)-6,8-dimethylquinoline]",96.2%
6,"O=C(Nc1ccc(F)cc1F)Nc1cnc2ccc(Cl)cc2c1-c1ccc(O)c(O)c1 [Example 75, 6-chloro-3-[3-(2,4-difluorophenylureido]-4-(3,4-dihydroxyphenyl)quinoline.1/2hydrate]",61.2%
7,"O=C(Nc1ccc(F)cc1F)Nc1cnc2ccc(SC(F)F)cc2c1-c1ccccc1 [Example 53, 6-Difluoromethylthio-3-[3-(2,4-difluorophenyl)ureido]-4-phenylquinoline]",85.7%
8,"COc1ccc(-c2c(NC(=O)Nc3ccc(F)cc3F)cnc3ccc(Cl)cc23)cc1OC [Example 60, 6-Chloro-3-[3-(2,4-difluorophenyl)ureido]-4-(3,4-dimethoxyphenyl)quinoline]",95.1%
9,"COc1ccc(-c2c(NC(=O)Nc3ccc(F)cc3F)cnc3ccc(Cl)cc23)c(OC)c1OC [Example 68, 6-Chloro-3-[3-(2,4-difluorophenyl)ureido]-4-(2,3,4-trimethoxyphenyl)quinoline]",98%
10,"O=C(Nc1ccc(Cl)cc1)Nc1cnc2ccc(Cl)cc2c1-c1ccccc1Cl [Example 50, 6-Chloro-4-(2-Chlorophenyl)-3-[3-(4-chlorophenyl)ureido]quinoline]",96.8%
11,"O=C(Nc1ccc(F)cc1F)Nc1cnc2ccc(Cl)cc2c1-c1ccc(Cl)cc1 [Example 25, 6-Chloro-4-(4-chlorophenyl)-3-[3-(2,4-difluorophenyl)ureido]quinoline]",77%
12,"Cc1cc(C)c2ncc(NC(=O)Nc3cc(C(C)C)c(O)c(C(C)C)c3)c(-c3ccccc3Cl)c2c1 [Example 79, 4-(2-chlorophenyl)-3-[3-(4-hydroxy-3,5-diisopropylphenyl)ureido]-6,8-dimethylquinoline]",79.9%
13,"Cc1ccccc1-c1c(NC(=O)Nc2ccc(F)c([N+](=O)[O-])c2)cnc2ccc(Cl)cc12 [Example 58, 6-Chloro-3-[3-(4-fluoro-3-nitrophenyl)ureido]-4-(2-methylphenyl)quinoline]",88.5%
14,"Cc1cc(C)c2ncc(N(Cc3cc(C(C)(C)C)c(O)c(C(C)(C)C)c3)C(=O)Nc3ccc(F)cc3F)c(-c3ccccc3Cl)c2c1 [Example 67, 3-[1-(3,5-Di-tert-butyl-4-hydroxybenzyl)-3-(2,4-difluorophenyl)ureido]-4-(2-chlorophenyl)-6,8-dimethylquinoline]",90.1%
15,"COc1ccc(-c2c(NC(=O)Nc3ccc(F)cc3F)cnc3ccc(Cl)cc23)c(O)c1OC [Example 69, 6-Chloro-3-[3-(2,4-difluorophenyl)ureido]-4-(2-hydroxy-3,4-dimethoxyphenyl)quinoline]",78.2%

# The remaining lines, values ahead:
row,inhibition at 1 µM,Compound
1,99.3%,"CC(C)c1ccc2ncc(NC(=O)Nc3ccc(F)cc3F)c(-c3ccccc3Cl)c2c1 [Example 34, 4-(2-Chlorophenyl)-3-[3-(2,4-difluorophenyl)ureido]-6-isopropylquinoline]"
2,98.3%,"Cc1cc(Cl)cc2c(-c3ccccc3Cl)c(NC(=O)Nc3ccc(F)cc3F)cnc12 [Example 38, 6-Chloro-4-(2-chlorophenyl)-3-[3-(2,4-difluorophenyl)ureido]-8-methylquinoline]"
3,99.6%,"Cc1cc2ncc(NC(=O)Nc3ccc(F)cc3F)c(-c3ccccc3Cl)c2cc1C [Example 73, 4-(2-Chlorophenyl)-3-[3-(2,4-difluorophenyl)ureido]-6,7-dimethylquinoline]"
4,87.3%,"Cc1cccc2ncc(NC(=O)Nc3ccc(F)cc3F)c(-c3ccccc3Cl)c12 [Example 83, 4-(2-Chlorophenyl)-3-[3-(2,4-difluorophenyl)ureido]-5-methylquinoline]"
5,99.3%,"Cc1cc2c(-c3ccccc3Cl)c(NC(=O)Nc3ccc(F)cc3F)cnc2c(C)c1C [Example 74, 4-(2-Chlorophenyl)-3-[3-(2,4-difluorophenyl)ureido]-6,7,8-trimethylquinoline]"
6,97.2%,"Cc1ccccc1-c1c(NC(=O)Nc2ccc(F)cc2F)cnc2ccc(Cl)cc12 [Example 27, 6-Chloro-3-[3-(2,4-difluorophenyl)ureido]-4-(2-methylphenyl)quinoline]"
7,95.6%,"O=C(Nc1ccc(F)cc1F)Nc1cnc2ccc(F)cc2c1-c1ccccc1Cl [Example 36, 4-(2-Chlorophenyl)-3-[3-(2,4-difluorophenyl)ureido]-6-fluoroquinoline]"
8,91.8%,"O=C(Nc1ccc(F)cc1F)Nc1cnc2ccccc2c1-c1ccccc1Cl [Example 21, 4-(2-Chlorophenyl)-3-[3-(2,4-difluorophenyl)ureido]quinoline]"
9,85.5%,"O=C(Nc1ccc(F)cc1F)Nc1cnc2ccc(Br)cc2c1-c1ccccc1 [Example 11, 6-Bromo-3-[3-(2,4-difluorophenyl)ureido]-4-phenylquinoline]"
10,87.4%,"Cc1ccc(-c2c(NC(=O)Nc3ccc(F)cc3F)cnc3ccc(Cl)cc23)cc1 [Example 26, 6-Chloro-3-[3-(2,4-difluorophenyl)ureido]-4-(4-methylpheynyl)quinoline]"
11,97%,"CCCCc1ccc2ncc(NC(=O)Nc3ccc(F)cc3F)c(-c3ccccc3Cl)c2c1 [Example 35, 6-Butyl-4-(2-chlorophenyl)-3-[3-(2,4-difluorophenyl)ureido]quinoline]"
12,96.8%,"O=C(Nc1ccc(F)cc1F)Nc1cnc2ccc(Cl)cc2c1-c1ccccc1F [Example 22, 6-Chloro-3-[3-(2,4-difluorophenyl)ureido]-4-(2-fluorophenyl)quinoline]"
13,91.6%,"CC(C)c1ccc2ncc(NC(=O)Nc3ccc(F)cc3F)c(-c3ccccc3)c2c1 [Example 15, 3-[3-(2,4-Difluorophenyl)ureido]-6-isopropyl-4-phenylquinoline]"
14,99.2%,"CCc1ccc2ncc(NC(=O)Nc3ccc(F)cc3F)c(-c3ccccc3Cl)c2c1 [Example 33, 4-(2-Chlorophenyl)-3-[3-(2,4-difluorophenyl)ureido]-6-ethylquinoline]"
15,97.5%,"CSc1ccccc1-c1c(NC(=O)Nc2ccc(F)cc2F)cnc2ccc(C)cc12 [Example 59, 3-[3-(2,4-Difluorophenyl)ureido]-6-mehtyl-4-(2-mehtylthiophenyl)quinoline]"
